Source: patent publication US20090131513A1, “ANTI-INFLAMMATORY MODALITIES” (Novogen Research Pty Ltd., priority 2005, published 2009)

Assays:
[1] = system: inflammed rat air pouches (serum-treated zymozan); test: Rat air pouch assay; type: in vivo, rats (Dark Agouti); conditions: At 1 mM application
[2] = system: NO synthesis in mouse macrophage cell line RAW 264.7; test: Inhibition of nitric oxide synthesis (Griess reaction); type: cell-based; conditions: 10 μM
Procedure: Exposure of various cells (e.g. macrophages and smooth muscle cells) to bacterial LPS and proinflammatory cytokines induces iNOS which generates NO. NO production can be indirectly quantified by measurement of nitrite (NO2—), a stable breakdown product of NO. The mouse macrophage cell line RAW 264.7 was cultured in DMEM supplemented with FCS, 2 mM glutamine and 50 U/ml penicillin/streptomycin. Cells were treated with either test compound at 10 μM (in 0.125% DMSO) or vehicle alone, together with 10 ng/ml LPS. After incubation for 24 hrs, culture media was collected and analysed immediately for NO concentration using the Griess reaction (Eigler et al. 1995).

[3] = system: AA-induced ear inflammation; test: Murine ear inflammation induced by arachidonic acid; type: in vivo, mice (BALB/c); conditions: for Increase in ear thickness (mean ± SD, ×0.01 mm): 25 mg/kg i/p, 1 hr post-AA application; for AA-induced ear inflammation / ear thickness compared with vehicle, in words: mouse, in vivo
Text: Compounds were examined for their ability to inhibit ear swelling in mice induced by the topical application of arachidonic acid (AA). The inflammatory response due AA, the immediate precursor of the eicosanoids, is due to formation of AA metabolites via both the cyclooxygenase (COX) and lipoxygenase (LOX) pathways (Young et al. 1984). AA induces an increase in both PGE2 and LTC4 synthesis which precedes the increase in ear thickness (Opas et al. 1985; Chang et al. 1986).
Female BALB/c mice (ARC, WA, Australia), weighing 15-21 g were injected with Compound 2 delivered in polyethylene glycol (PEG) 400:phosphate buffered saline (PBS) 1:1 intraperitoneally (i/p) at a dose of 25 mg/kg either 30 min prior to or immediately before the application of AA to the ears. Mice were anaesthetized using isoflurane and baseline thickness of both ears was measured using a spring micrometer. Each mouse received a total of 20 μL of AA in ethanol (50 mg/ml) applied to the inner and outer surfaces of each pinna (i.e. 0.5 mg AA per ear). Mice were anaesthetized again to remeasure the ears at 1 hr post-AA application.
The difference in ear swelling pre- and post-application of AA for each ear was calculated, and the average for the two ears of each mouse calculated. The difference in mean swelling of each test group compared to the group given vehicle alone was calculated using a two-tailed unpaired t test (Prism 4, GraphPad Software).

[4] = system: DSS-induced colitis; test: Murine model of DSS-induced colitis; type: in vivo, mice (BALB/c); conditions: for ulceration of the posterior colon (mice affected): vehicle 3/8; for mean clinical score versus vehicle: Experiment 3, 11 (p=0.0252); for colonic inflammation, in words: series of experiments, 1.0-1.25 mg/kg single oral dose per day
Procedure: Female BALB/c mice, 6-7 weeks old, were housed for a minimum of one week before any experimental work began. To induce colitis, dextran sulphate sodium (DSS—molecular weight 40 kD, TdB Consultancy AB, Uppsala, Sweden (Dieleman et al. 1994), was administered fresh daily in the drinking water at a concentration of 4.5-5% for 5 days (Okayasu et al. 1990), after which water alone was given. This regime induced mild colitis, evidenced by diarrhea and rectal bleeding, the severity of which was scored, as well as a reduction in the length of the colon. Histologically, colonic inflammation was evidenced by ulceration and an infiltration of neutrophils into the mucosa, which was also scored. The systemic effect of the colitis causes weight loss, which was also monitored.
Either vehicle (PEG 400:PBS1:1) Compounds 1 or 4 were administered at a dose rate of 1 mg/kg throughout the experiment until the mice were killed at day 17.
Either Compounds 1 and 2, at a dose of 1 mg/kg or vehicle were administered for 10 days prior to DSS being added to the drinking water to induce colitis, after which test compound was stopped. DSS was administered for 5 days and the mice killed 8 days later (day 23).
Either the cis or the trans isomers of Compound 3 (Compound 3a and 3b respectively) at 1.25 mg/kg or vehicle were administered throughout the experiment until the mice were killed at day 17.

[5] = system: UV irradiation-induced skin oedema; test: Murine model of UV irradiation-induced skin oedema; type: in vivo, mice (Skh:hr-1 albino); conditions: for Increase in skin thickness (mean ± SD, ×0.01 mm): topical 0.2 ml of 20 μM at 30 min, 2 h, 4 h
Text: Groups of 4-5 female Skh:hr-1 albino mice were irradiated with 1×3 MEdD (minimal edematous dose) of solar simulated UV radiation (SSUV). Solar-simulated ultraviolet radiation (SSUV) was provided by a planar bank of 6 UVA tube (Hitachi 40 W F40 T 10/BL, black light) and one UVB tube (Philips TL 40 W/12 RS) with radiation filtered through a sheet of 0.125 mm cellulose acetate (Eastman Chemical Products, Kingport, Term, USA) to give 2.96×10-4 W/cm2 UVA and 1.59×10-5 W/cm2 UVB. During irradiation, the cages were rotated below the lights to reduce the variation in radiation intensity in different positions.
Either test compound (0.2 ml of a 20 μM solution) or vehicle (propylene glycol/ethanol/water 1:2:1) was applied to the irradiated dorsal skin at 30 min, 2 h and 4 h post-irradiation. Dorsal skin fold measurements were made with a spring micrometer prior to and at 24 hr and 48 h post-UV exposure. The difference in skin thickness pre- and post-exposure to UVR was calculated for each mouse, and the differences examined between test compound and vehicle control were analysed using an unpaired two-tailed t test.

[6] = system: inflammed rat air pouches (serum-treated zymozan); test: Rat air pouch assay; type: in vivo, rats (Dark Agouti); conditions: 0.5 ml of 100 μM into pouch; for Leucocytes in lavage fluid (×10^−7): lavage at 4 h
Procedure: An alternative assay used to measure anti-inflammatory efficacy is the air pouch model which involves the repeated subcutaneous injection of air into the dorsum of rats followed 24 h later by the intrapouch injection of an inflammatory stimulus (Gilroy et al. 1998).
Air pouches were raised on the dorsum of female Dark Agouti rats, approximately 7 weeks of age. To promote the formation of a cellular membrane lining the inside of each pouch, the pouches were maintained by re-inflating on days 2 and 5 after the initial injection of air. On re-inflation, the pouch was first deflated to ensure the needle was positioned correctly, before being re-inflated with 2 mL of sterile air. Using this protocol, the pouches remained inflated until use on day 7, when they were injected with 0.5 ml of either test compound at 100 μM or vehicle control. After 15 min, air pouches were injected with serum-treated zymozan (STZ-500 μg). Lavage of the air pouch (4×2 ml lavages) was performed at 4 h and leucocytes counted, after which the rats were killed, the air pouch excised and processed in formalin for histology. The sections were blinded to the person counting. Using a graticule with 100 squares and the 40× objective, the number of polymorphs were counted in the pouch lining at 10 different and non-adjacent sites. Group sizes were 5-6 rats. Data were analysed for statistical significance within each experiment and using an unpaired t test.

[7] = target: T1, TX synthase (TXS) (Homo sapiens, UniProt P24557); test: TXB2 synthesis following addition of exogenous PGH2 to U937 cells; type: cell-based; conditions: 1, 10, 100 μM, undifferentiated U937 cells, PGH2 5 μM
T1 construct: endogenous in cells; host or cells: undifferentiated U937 cells
T1 sequence (P24557 1-533): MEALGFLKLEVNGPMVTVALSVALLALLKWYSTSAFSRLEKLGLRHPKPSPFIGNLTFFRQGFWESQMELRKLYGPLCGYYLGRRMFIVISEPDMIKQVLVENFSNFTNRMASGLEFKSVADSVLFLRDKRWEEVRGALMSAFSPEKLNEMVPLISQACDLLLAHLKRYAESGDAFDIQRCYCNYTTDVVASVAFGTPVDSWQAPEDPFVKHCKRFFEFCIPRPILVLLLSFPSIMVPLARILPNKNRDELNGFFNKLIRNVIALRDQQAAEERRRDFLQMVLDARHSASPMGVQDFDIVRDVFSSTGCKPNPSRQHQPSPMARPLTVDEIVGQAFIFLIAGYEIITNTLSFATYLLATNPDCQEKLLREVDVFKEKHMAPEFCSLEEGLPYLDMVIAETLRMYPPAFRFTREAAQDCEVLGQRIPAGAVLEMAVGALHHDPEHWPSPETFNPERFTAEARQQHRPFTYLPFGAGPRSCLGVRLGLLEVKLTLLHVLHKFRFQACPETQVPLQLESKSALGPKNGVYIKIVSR
Procedure: To examine effects of test compounds directly on TX synthase (TXS), a different assay system was used. Whereas arachidonic acid (AA) is the substrate for COX, PGH2 is the substrate for TX synthase. To examine directly the effect of these compounds on TXS, exogenous ? elow:
Test compounds at 0 μM, 1 μM, 10 μM and 100 μM (in DMSO) were incubated with undifferentiated U937 cells (6×10^6/ml) for 30 min at 37° C., after which PGH2 (5 μM) was added. After incubation for 10 min, the reaction was terminated by centrifugation and the supernatants were collected and TXB2 production was measured in triplicate by RIA. ANOVA followed by Newman-Keuls multiple comparisons test was used to examine differences between doses and the control values. A statistical significance level of 0.05 was used and differences from control values are indicated by an asterisk (*).

[8] = system: NFκB promoter activity; test: Inhibition of NFκB promoter activity (β-lactamase reporter) in TNFα-stimulated THP-1 cells; type: cell-based, human; conditions: 5 h
Procedure: Human macrophage THP-1 cells, modified to include the β-lactamase reporter gene, were seeded into wells of a 96-well plate (50×10^3 cells/well) in the presence of RPMI 1640 medium (70 μl). TNFα (7.5 ng/ml) and human sera (final concentration of 20%) were added to each well. Plates were incubated for 5 h at 37° C. to allow for NFkB-stimulated β-lactamase production. LiveBLAzer™ FRET B/G Substrate (CCF4-AM) was then added to assay for β-lactamase activity. Once CCFA-AM enters a cell, it is converted to negatively charged CCF4 by endogenous esterases. Excitation of this substrate at 409 nm leads to efficient FRET between the coumarin and fluorescein moieties, resulting in a green fluorescence detectable at 530 nm. The presence of β-lactamase leads to cleavage of CCF4 and results in a loss of FRET, resulting in a robust blue fluorescent signal detectable at 460 nm. Thus, activity of beta-lactamase (a marker of NFkB-promoter activity) is measured as a product to substrate ratio (blue/green fluorescence ratio: 460 nm/530 nm).

SMILES	number of polymorphs in the tissue sections, in words [1]	NO synthesis, direction of effect in words [2]	Increase in ear thickness (mean ± SD, ×0.01 mm) [3] [×0.01 mm]	AA-induced ear inflammation / ear thickness compared with vehicle, in words [3]	colon length versus vehicle ([4]; Experiment 3, 1.25 mg/kg)	day of switch from mean body weight loss to mean body weight gain ([4]; Experiment 3, 1.25 mg/kg) [days]	degree of mucosal damage versus vehicle ([4]; Experiment 3, 1.25 mg/kg)	colonic inflammation and its resolution, in words ([4]; Experiment 3, 1.25 mg/kg throughout until day 17)	ulceration of the posterior colon (mice affected) ([4]; Experiment 3, 1.25 mg/kg)	maximum mean weight loss ([4]; Experiment 3, 1.25 mg/kg, vehicle nearly 5%)	mean clinical score versus vehicle ([4]; days 8 (p=0.0078), 9 (p=0.0326), 10 (p=0.0386), 15 (p=0.0033), 16 (p=0.0016))	colonic inflammation, in words [4]	Increase in skin thickness (mean ± SD, ×0.01 mm) ([5]; 24 hrs post-irradiation) [×0.01 mm]	Increase in skin thickness (mean ± SD, ×0.01 mm) ([5]; 48 hrs post-irradiation) [×0.01 mm]	UV-induced inflammation / skin oedema, in words ([5]; both time points (24 and 48 hrs), topical)	Polymorphs in tissue sections (per 100 squares) ([6]; 4 h)	Leucocytes in lavage fluid (×10^−7) [6]	mean clinical score versus vehicle ([4]; days 8 (p=0.0055), 9 (p=0.0057), 17 (p=0.0177))	thromboxane synthase inhibition (TXB2 synthesis after exogenous PGH2), selectivity in words [7]	inhibition of NFκB compared to vehicle control [8]
Cc1c(O)ccc2c1OCC(c1ccc(O)cc1)C2O (single isomer, unassigned) [Compound 3a]	suppressed the number of polymorphs	inhibited NO synthesis	6.7 ± 2.1	significant reduction in ear thickness	significantly longer (p=0.039)	4	significantly lower (p=0.018)	reduced colonic inflammation and hastened its resolution	not observed	less than 2%	significantly lower	reduced colonic inflammation	32 ± 18	69 ± 24	significantly inhibited skin oedema	17.9 ± 14.2	0.47 ± 0.4 ×10^−7	–	–	–
Cc1c(O)ccc2c1OCC(c1ccc(O)cc1)C2O (single isomer, unassigned) [Compound 3b]	–	inhibited NO synthesis	7.1 ± 3.0	significant reduction in ear thickness	–	–	–	–	1/8	–	–	reduced colonic inflammation	56 ± 14	113 ± 25	–	–	0.66 ± 0.23 ×10^−7	significantly lower	–	–
Cc1cc(O)cc2c1C(=O)C(c1ccc(O)cc1)CO2 (stereo not shown) [Compound 5]	–	–	–	–	–	–	–	–	–	–	–	–	–	–	–	–	–	–	selective thromboxane synthase inhibitors	significantly (p<0.001) inhibited
